Assay results published in ChEMBL document CHEMBL3885881, “DrugMatrix”.

Organism: Rattus norvegicus
Assay: DrugMatrix - Regimen: Daily Repeat
Type: toxicity, organism-based, Sprague-Dawley
Parameters: regimen Daily Repeat, gender Male, age 6-8 weeks
Details: in vivo, po, route oral GAVAGE, […]; for ABSOLUTE BASOPHIL / ABSOLUTE EOSINOPHIL / ABSOLUTE LYMPHOCYTE / ABSOLUTE MONOCYTE / ABSOLUTE SEGMENTED NEUTROPHIL / BASOPHIL / EOSINOPHIL / ERYTHROCYTE COUNT / HEMATOCRIT / HEMOGLOBIN / LEUKOCYTE COUNT / LYMPHOCYTE / MEAN CORPUSCULAR HEMOGLOBIN / MEAN CORPUSCULAR HEMOGLOBIN CONCENTRATION / MEAN CORPUSCULAR VOLUME / MONOCYTE / NEUTROPHIL / NUCLEATED RED BLOOD CELLS / PLATELET COUNT: tissue Blood; for ALANINE AMINOTRANSFERASE / ALBUMIN / ALKALINE PHOSPHATASE / ASPARTATE AMINOTRANSFERASE / BLOOD UREA NITROGEN / CARBON DIOXIDE / CHLORIDE / CHOLESTEROL / CREATINE PHOSPHOKINASE / CREATININE / GLUCOSE / LACTATE DEHYDROGENASE / LIPASE / PHOSPHORUS / POTASSIUM / SODIUM / TOTAL BILIRUBIN / TOTAL PROTEIN / URIC ACID: tissue Plasma
[1] = 30 mg/kg, 120 h, dose level Low, time 5 day
[2] = 60 mg/kg, 72 h, dose level High, time 3 day
[3] = 60 mg/kg, 120 h, dose level High, time 5 day

Cc1oncc1C(=O)Nc1ccc(C(F)(F)F)cc1 [LEFLUNOMIDE]
ABSOLUTE BASOPHIL [1]: 0 CELLS/uL | ABSOLUTE EOSINOPHIL [1]: 25.33 CELLS/uL | ABSOLUTE LYMPHOCYTE [1]: 6685.33 CELLS/uL | ABSOLUTE MONOCYTE [1]: 149.33 CELLS/uL | ABSOLUTE SEGMENTED NEUTROPHIL [1]: 606.67 CELLS/uL | BASOPHIL [1]: 0% | EOSINOPHIL [1]: 0.33% | ERYTHROCYTE COUNT [1]: 4.69 x10E6/uL | HEMATOCRIT [1]: 30.27% | HEMOGLOBIN [1]: 11.73 G/DL | LEUKOCYTE COUNT [1]: 7.47 x10E3/uL | LYMPHOCYTE [1]: 89.33% | MEAN CORPUSCULAR HEMOGLOBIN [1]: 25.03 pg | MEAN CORPUSCULAR HEMOGLOBIN CONCENTRATION [1]: 38.77 G/DL | MEAN CORPUSCULAR VOLUME [1]: 64.57 fL | MONOCYTE [1]: 2% | NEUTROPHIL [1]: 8.33% | NUCLEATED RED BLOOD CELLS [1]: 0 /100WBC | PLATELET COUNT [1]: 507.67 x10E3/uL | ALANINE AMINOTRANSFERASE [1]: 47.33 u/L | ALBUMIN [1]: 3.93 G/DL | ALKALINE PHOSPHATASE [1]: 195.67 u/L | ASPARTATE AMINOTRANSFERASE [1]: 69.33 u/L | BLOOD UREA NITROGEN [1]: 12.67 mg/dL | CARBON DIOXIDE [1]: 34 mmol/L | CHLORIDE [1]: 103 MEQ/L | CHOLESTEROL [1]: 104.33 mg/dL | CREATINE PHOSPHOKINASE [1]: 179 u/L | CREATININE [1]: 0.11 mg/dL | GLUCOSE [1]: 152.67 mg/dL | LACTATE DEHYDROGENASE [1]: 60 u/L | LIPASE [1]: 11.67 u/L | PHOSPHORUS [1]: 12.6 mg/dL | POTASSIUM [1]: 5.71 MEQ/L | SODIUM [1]: 146.27 MEQ/L | TOTAL BILIRUBIN [1]: 0.1 mg/dL | TOTAL PROTEIN [1]: 5.9 G/DL | URIC ACID [1]: 0.27 mg/dL | ABSOLUTE BASOPHIL [2]: 0 CELLS/uL | ABSOLUTE EOSINOPHIL [2]: 0 CELLS/uL | ABSOLUTE LYMPHOCYTE [2]: 5003.33 CELLS/uL | ABSOLUTE MONOCYTE [2]: 42.67 CELLS/uL | ABSOLUTE SEGMENTED NEUTROPHIL [2]: 720.67 CELLS/uL | BASOPHIL [2]: 0% | EOSINOPHIL [2]: 0% | ERYTHROCYTE COUNT [2]: 5.59 x10E6/uL | HEMATOCRIT [2]: 34.57% | HEMOGLOBIN [2]: 13.67 G/DL | LEUKOCYTE COUNT [2]: 5.77 x10E3/uL | LYMPHOCYTE [2]: 89% | MEAN CORPUSCULAR HEMOGLOBIN [2]: 24.5 pg | MEAN CORPUSCULAR HEMOGLOBIN CONCENTRATION [2]: 39.53 G/DL | MEAN CORPUSCULAR VOLUME [2]: 61.87 fL | MONOCYTE [2]: 0.67% | NEUTROPHIL [2]: 10.33% | NUCLEATED RED BLOOD CELLS [2]: 0 /100WBC | PLATELET COUNT [2]: 824 x10E3/uL | ALANINE AMINOTRANSFERASE [2]: 39.67 u/L | ALBUMIN [2]: 3.1 G/DL | ALKALINE PHOSPHATASE [2]: 225.67 u/L | ASPARTATE AMINOTRANSFERASE [2]: 100.33 u/L | BLOOD UREA NITROGEN [2]: 14 mg/dL | CARBON DIOXIDE [2]: 30 mmol/L | CHLORIDE [2]: 98.67 MEQ/L | CHOLESTEROL [2]: 115.33 mg/dL | CREATINE PHOSPHOKINASE [2]: 296.67 u/L | CREATININE [2]: 0.11 mg/dL | GLUCOSE [2]: 170 mg/dL | LACTATE DEHYDROGENASE [2]: 93.67 u/L | LIPASE [2]: 11.33 u/L | PHOSPHORUS [2]: 10.73 mg/dL | POTASSIUM [2]: 4.3 MEQ/L | SODIUM [2]: 142.97 MEQ/L | TOTAL BILIRUBIN [2]: 0.17 mg/dL | TOTAL PROTEIN [2]: 4.97 G/DL | URIC ACID [2]: 0.43 mg/dL | ABSOLUTE BASOPHIL [3]: 0 CELLS/uL | ABSOLUTE EOSINOPHIL [3]: 23 CELLS/uL | ABSOLUTE LYMPHOCYTE [3]: 3653 CELLS/uL | ABSOLUTE MONOCYTE [3]: 48 CELLS/uL | ABSOLUTE SEGMENTED NEUTROPHIL [3]: 376 CELLS/uL | BASOPHIL [3]: 0% | EOSINOPHIL [3]: 0.67% | ERYTHROCYTE COUNT [3]: 6.19 x10E6/uL | HEMATOCRIT [3]: 39% | HEMOGLOBIN [3]: 15.23 G/DL | LEUKOCYTE COUNT [3]: 4.1 x10E3/uL | LYMPHOCYTE [3]: 89.33% | MEAN CORPUSCULAR HEMOGLOBIN [3]: 24.77 pg | MEAN CORPUSCULAR HEMOGLOBIN CONCENTRATION [3]: 39.07 G/DL | MEAN CORPUSCULAR VOLUME [3]: 63.4 fL | MONOCYTE [3]: 1.33% | NEUTROPHIL [3]: 8.67% | NUCLEATED RED BLOOD CELLS [3]: 0 /100WBC | PLATELET COUNT [3]: 441.33 x10E3/uL | ALANINE AMINOTRANSFERASE [3]: 25.67 u/L | ALBUMIN [3]: 3.73 G/DL | ALKALINE PHOSPHATASE [3]: 203 u/L | ASPARTATE AMINOTRANSFERASE [3]: 75.67 u/L | BLOOD UREA NITROGEN [3]: 64.67 mg/dL | CARBON DIOXIDE [3]: 24.33 mmol/L | CHLORIDE [3]: 98.5 MEQ/L | CHOLESTEROL [3]: 138.67 mg/dL | CREATINE PHOSPHOKINASE [3]: 227.67 u/L | CREATININE [3]: 0.33 mg/dL | GLUCOSE [3]: 145.67 mg/dL | LACTATE DEHYDROGENASE [3]: 137 u/L | LIPASE [3]: 22.67 u/L | PHOSPHORUS [3]: 11.8 mg/dL | POTASSIUM [3]: 5.41 MEQ/L | SODIUM [3]: 137.7 MEQ/L | TOTAL BILIRUBIN [3]: 0.27 mg/dL | TOTAL PROTEIN [3]: 6.53 G/DL | URIC ACID [3]: 0.93 mg/dL
